# Patent US20120232107A1, “NON-PEPTIDE ANTAGONISTS OF GASTRIN RELEASING PEPTIDE” (The Government of the United States of America as …, priority 2003, published 2012)
# “Also recorded” adds a separate entry of the source. Like-named read-outs stand apart in the source and are kept apart here. Ends that are not written are not given here.
# What was measured:
# [1] = target: T1, AM (Homo sapiens, UniProt P35318); experiment: Surface plasmon resonance binding to immobilized AM; conditions: for Binding to AM kd: kinetic dissociation constant; for kon: read-out: Binding to AM ka; for Binding to AM KA: thermodynamic association constant
# T1 construct: AM is a 52 amino acid peptide; purchased Peninsula (S. Carlos, Calif.); host or cells: synthetic peptide
# T1 sequence (P35318 95-146 limits assumed): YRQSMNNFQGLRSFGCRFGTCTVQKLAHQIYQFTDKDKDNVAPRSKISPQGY
# Method: Characterization of the binding between AM and the small molecules was performed immobilizing 3 μg of AM on a CM5 sensor chip by N-hydroxysuccinimide activation, followed by covalent amino coupling of the peptide to the surface, using BIAcore 3000 (Piscataway, N.J.). The remaining free surface was blocked with 1 mM ethanolamine and the matrix washed with 0.5 M NaCl solution and then re-equilibrated with binding buffer (1:200 DMSO in PBS). Eight different dilutions of each small molecule were prepared in binding buffer with concentrations ranging from 0 to 10 μM and injected from low to high concentration. Each injection was followed by a matrix regeneration step. Mass transfer control experiments were performed by injecting the same concentration of each small molecule at different flow rates (5, 15, and 75 μl/min). The data were then fitted to several models for a kinetic analysis and the binding constants calculated. The best fittings were obtained with a simple 1:1 Langmuir model.
# [2] = target: T1, AM; experiment: cAMP analysis for AM in Rat2 cells; type: cell-based, rat; conditions: for variation of intracellular cAMP levels: Rat2 cells; for Action on second messengers: peptide AM, cAMP induced by 100 nM AM in Rat2 cells; for Response to second messengers: peptide target AM
# Method: This cell line was obtained from the American Tissue Culture Collection (ATCC, Manassas, Va.) and maintained in RPMI-1640 supplemented with 10% fetal bovine serum (FBS, Invitrogen, Carlsbad, Calif.). Cells were seeded in 24-well plates at 2×10^4 cells/well and incubated at 37° C. in 5% CO2 until they reached 80% confluency. Before the assay, cells were incubated for 15 min in TIS medium (RPMI-1640 plus 10 μg/ml transferrin, 10 μg/ml insulin, and 50 nM sodium selenite) containing 1% BSA, 1 mg/ml bacitracin, and 100 μM isobutylmethylxanthine. Peptides and small molecules were applied in the same medium for 5 min at the indicated concentrations in a volume of 250 μl. The reaction was terminated by adding an equal volume of ice-cold ethanol. cAMP contents were measured using the Biotrac cAMP radioimmunoassay (Amersham Biosciences, Piscataway, N.J.), as described (Pio et al. (2001) J. Biol. Chem. 276, 12292-12300).
# [3] = system: normotensive Lewis/ssncr rats; experiment: Measurement of blood pressure in vivo, normotensive Lewis/ssncr rats; design: species or system rat; conditions: for Biological activity (blood pressure): AM antagonists, 20 nmols/Kg iv; for Biological activity: negative modulators of AM
# Method: (§1) AM is a potent and long-lasting vasodilator Therefore it was expected that AM antagonists would elevate blood pressure and AM superagonists would decrease it further. In consequence, suspected antagonists were analyzed in normotensive rats (10-week-old Lewis/ssncr males, SAIC, Frederick, Md.) and suspected superagonists in hypertensive animals (10-week-old SHR males, Taconic Farms, Germantown, N.Y.).
# (§2) Animals were anaesthetized with 3% halothane, intubated, and maintained with 1% halothane in 70% nitrous oxide and 30% oxygen (VMS Anesthesia Machine, Matrx, Medical Inc., Orchard Park, N.Y.) at 82 strokes/min. Rectal temperature was monitored through the experiment. A PE50 catheter was placed on the right femoral artery and arterial blood pressure was recorded through a P23XL transducer (Grass Instruments, Quincy, Mass.). Peptides and small molecules were injected into the right femoral vein through another catheter. All procedures were performed under a protocol approved by the National Institutes of Health.
# [4] = target: T2, GRP (Homo sapiens, UniProt P07492); experiment: IP3 analysis for GRP in H-1299 cells; type: cell-based; conditions: for Action on second messengers: peptide GRP, IP3 or Ca2+ levels induced by GRP in H1299 cells
# T2 construct: GRP is a 27 amino acid peptide; purchased Peninsula (S. Carlos, Calif.); host or cells: synthetic peptide
# T2 sequence (P07492 24-50 limits assumed): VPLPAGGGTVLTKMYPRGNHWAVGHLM
# Method: This cell line was obtained from ATCC and cultured as the other cell lines. The signal transduction pathway for GRP includes elevation of intracellular levels of IP3 and Ca^2+ and these were investigated as previously shown (Ryan et al. (1998) J. Biol. Chem., 273, 13613-13624). Briefly, to quantify IP3, contents cells were subcultured into 24-well plates (5×10^4 cells/well). After a 24 h incubation period at 37° C., the cells were incubated with 3 μCi/ml myo-[^3H]inositol in growth medium supplemented with 2% FBS for an additional 24 h. Incubation volumes were 500 μl of assay buffer/well containing 135 mM sodium chloride, 20 mM HEPES (pH 7.4), 2 mM calcium chloride, 1.2 mM magnesium sulfate, 1 mM EGTA, 20 mM lithium chloride, 11.1 mM glucose, and 0.05% BSA (v/v) with or without any of the molecules studied at 37° C. for 30 min. Experiments were terminated with 1 ml of ice-cold hydrochloric acid/methanol (0.1%, v/v). [^3H]IP3 was eluted off Dowex AG-1-X8 anion exchange columns with 2 ml of 1 mM ammonium formate and 100 mM formic acid. Each of the eluates was collected and mixed with 10 ml of scintillation mixture (BioSafe, Research Products International Corp, Mount Prospect, Ill.), and the radioactivity was measured in a LS 3801 β counter (Beckman, Somerset, N.J.).
# [5] = target: T2, GRP; experiment: Ca2+ analysis for GRP in H-1299 cells; type: cell-based
# Method: After washing two times with TIS, 2 ml of cell suspension were placed in a Delta PTI Scan 1 spectrofluorimeter (Photon Technology International, South Brunswick, N.J.) equipped with a stir bar and water bath (37° C.). Fluorescence was measured at dual excitation wavelengths of 340 nm and 380 nm using an emission wavelength of 510 nm.
# [6] = system: hypertensive SHR rats; experiment: Measurement of blood pressure in vivo, hypertensive SHR rats; design: species or system rat; conditions: for decrease in blood pressure from basal levels: 20 nmols/Kg intravenous; for decrease in blood pressure from basal levels / Biological activity (blood pressure): hypertensive rats; for Biological activity (blood pressure): AM superagonists, 20 nmols/Kg iv
# Method: as §1, §2
# [7] = target: T1, AM; experiment: Primary screening: interference with binding of AM to its blocking monoclonal antibody; conditions: 1 μM compound
# Method: Human synthetic AM was solid-phased into PVC 96-well plates (Fisher Scientific, Pittsburgh, Pa.) by incubating 50 μl of AM (at 1 nmols/μl) per well for 1 h. To solid-phase […] into the plates, these were previously treated with glutaraldehyde as described (Kasprzyk et al. (1988) Anal. Biochem. 174, 224-234). After discarding the coating solution, the plates were blocked with 200 μl per well of 1% bovine serum albumin (BSA) in phosphate buffer saline (PBS). After 1 h, this solution was aspirated off and 50 μl containing 1 μM of one of the compounds of the library in PBS was added per well. Immediately after, 50 μl of labeled antibody (at 2.4 μg/ml) were added on each well and the solution was allowed to react for 1 h. Following 3 thorough washes with 1% BSA in PBS to remove the unbound antibodies, peroxidase activity was developed using o-phenylenediamine dihydrochloride (Sigma) as a substrate. The reaction product was quantified with a plate reader (Spectra Rainbow, Tecan, Austria) at 450 nm. Each plate contained several internal controls including wells without any coating that are used to calculate non-specific binding; wells where no potential antagonists were added, which provided maximum binding; and wells where the unlabeled antibody (at 1.2 μg/ml) substituted the small molecule, as a positive inhibition control (FIG. 1B). […]
# [8] = system: Bovine retinal microvascular endothelial cells; experiment: Cord formation assay in Matrigel; type: cell-based; conditions: 5 nM GRP alone
# Method: Formation of tube-like structures was performed as described in Kubota et al. (1988) J. Cell Biol. 107, 1589-1598; Nam et al. (2003) Phytother. Res. 17, 107-111; and Macpherson et al. (2003) Mol Cancer Ther 2, 845-54. Briefly, a thin layer of Matrigel (Collaborative Biomedical Products, Bedford, Mass.) was allowed to polymerize at the bottom of 24-well plates. […] After an overnight incubation at 37° C., the tubular structures were photographed (3 pictures per well at 10×) and the number of knots per photographic field were counted as a measure of lattice complexity.
# [9] = system: GRP-induced angiogenesis; experiment: Directed in vivo angiogenesis assay (DIVAA); design: species or system mice; conditions: 1 nM GRP
# Method: Analysis and quantitation of angiogenesis was done using DIVAA as previously described (Martinez et al. (2002) J Natl Cancer Inst 94, 1226-37). Briefly, 10 mm long surgical-grade silicone tubes with only one end open (angioreactors) were filled with 20 μl of matrigel alone or mixed with GRP and the small molecules at the indicated concentrations. After the matrigel solidified, the angioreactors were implanted into the dorsal flanks of athymic nude mice (NCI colony). After 11 days, the mice were injected iv with 25 mg/ml FITC-dextran (100 μl/mouse, Sigma) 20 min before removing angioreactors. Quantitation of neovascularization in the angioreactors was determined as the amount of fluorescence trapped in the implants and was measured in a HP Spectrophotometer (Perkin Elmer).
# [10] = unit inferred, read-out: calculated KD
compound,measurement,setting,value
CCN1CCC(O)(C(C(=O)O)c2ccccc2)CC1 (stereo not drawn) [compound 16311],Binding to AM kd,[1],1.02e-05 s⁻¹
same,kon,[1],1550 M⁻¹ s⁻¹
same,Binding to AM KA,[1],1.52e+08 M⁻¹
same,Kd,[1]; [10],0.00656 µM
same,variation of intracellular cAMP levels,[2]; in the presence of 100 nM AM,most active antagonists
same,Action on second messengers,[2],Antagonists
same,Response to second messengers,[2],Neg. modul.
same,"elevation in blood pressure, difference from basal levels","[3]; 20 nmols/Kg intravenous, normotensive rats",127±47 mm Hg
same,Biological activity (blood pressure),[3]; normotensive rats,Elevates blood
same,Biological activity,[3],Vasodilator
CCN(CC)CCC(O)(Cc1ccccc1)C(C(=O)O)c1ccccc1 (stereo not drawn) [compound 50161],variation of intracellular cAMP levels,[2]; in the presence of 100 nM AM,most active antagonists
same,Action on second messengers,[2],Antagonists
Oc1c[n+](CC[n+]2cc(O)on2)no1 [compound 54671],Action on second messengers,[4],Antagonists
same,Response to second messengers,[4]; peptide target GRP,Neg. modul.
same,Binding to AM,[1]; immobilized AM,not to bind; also recorded: No binding
same,Ca2+ response elicited by 1 nM GRP,[5]; H1299 cells pre-exposed to compound (1 min),dramatically reduces
CS(=O)(=O)OC1CN2CCC1CC2 (stereo not drawn) [compound 79422],variation of intracellular cAMP levels,[2]; in the presence of 100 nM AM,antagonist
same,Action on second messengers,[2],Antagonists
OC(COc1ccccc1)CN1CCCCC1 (stereo not drawn) [compound 89435],Binding to AM kd,[1],0.000871 s⁻¹
same,kon,[1],1020 M⁻¹ s⁻¹
same,Binding to AM KA,[1],1.18e+06 M⁻¹
same,Kd,"[1]; thermodynamic dissociation constant, read-out: Binding to AM KD",0.851 µM
same,variation of intracellular cAMP levels,[2]; in the presence of 100 nM AM,most active antagonists
same,Action on second messengers,[2],Antagonists
same,Response to second messengers,[2],Neg. modul.
same,Biological activity (blood pressure),[3]; normotensive rats,Elevates blood
same,Biological activity,[3],Vasodilator
OCCCN=C1CCCCC1 [compound 128911],decrease in blood pressure from basal levels,[6],62±21 mm Hg
same,Biological activity (blood pressure),[6],Reduces blood
same,Biological activity,[6]; positive modulator of AM,Vasopressor
same,Binding to AM kd,[1],0.000892 s⁻¹
same,kon,[1],304 M⁻¹ s⁻¹
same,Binding to AM KA,[1],341000 M⁻¹
same,Kd,[1]; [10],2.93 µM
same,Action on second messengers,[2],Superagonists
same,Response to second messengers,[2],Posit. modul.
Nc1nc(=O)c2[nH]cnc2n1O [compound 145425],decrease in blood pressure from basal levels,[6],55±24 mm Hg
same,Biological activity (blood pressure),[6],Reduces blood
same,Action on second messengers,[2],Superagonists
O=NN(Cc1ccc(Cl)cc1)C(C(=O)O)c1ccccc1 (stereo not drawn) [compound 372874],Action on second messengers,[4],Superagonist
Nn1c(CCCCCCCCc2nnc(COc3ccc4ccccc4c3O)n2N)nnc1COc1ccc2ccccc2c1O [compound 697162],Action on second messengers,[2],Superagonists
c1ccc(Nn2c(CCCCCCCCc3nnc(COc4ccccc4)n3Nc3ccccc3)nnc2COc2ccccc2)cc1 [compound 697165],competition with labeled blocking monoclonal antibody for AM-coated plate,[7],successful competitors
same,dose dependence of cAMP elevation,[2]; in the presence of 100 nM AM,dose-dependent elevation of cAMP
same,variation of intracellular cAMP levels,[2]; in the presence of 100 nM AM,superagonist
same,Action on second messengers,[2],Superagonists
"GRP: Synthetic human gastrin releasing peptide, 27 amino acid peptide hormone (VPLPAGGGTVLTKMYPRGNHWAVGHLM; ends and bridges not checked; UniProt P07492 24-50, looked up) [reference compound]",intracellular Ca2+,"[5]; 1 nM GRP alone, H1299 cells",marked elevation
same,number of knots per photographic field,[8],37±5
same,angiogenic potential in vivo,[9],exhibits angiogenic potential in vivo
